For 80 molecules, viability results are on record in PMC12040169 (PLOS Biology, 2025).

Molecules are shown by their SMILES.

The first data set is described as follows: in vitro. The note with it: human, hela cells, % viability.
By viability is commonly meant a read-out of living cells in per cent, often relative to untreated cells. Take `CC(C)(C)c1cc(C[C@H]2CNCC[C@H]2CC(=O)N2CCN(c3ccccn3)CC2)no1` [CBK288799]: the viability at 28.5 h, 10 µM came out at 87.4%.
For the molecule `COc1ccc(C(=O)N2C[C@H]3Cc4c(n[nH]c4C(F)F)[C@H]3C2)s1` [CBK283425], the viability at 28.5 h, 10 µM is 95.4%.
Same read-out and setting: as for `CCN1CCN(C(=O)CN(Cc2ccccc2)S(C)(=O)=O)CC1` [CBK266735], the figure is 94.6%.
Same read-out and setting: as for `Cc1cc(C(=O)NC2CCCOC2)c2cccc(Cl)c2n1` (centres unmarked) [CBK282459], the figure is 95.3%; as for `CCN(CCO)c1ccc(Nc2nc(-c3ccc(F)c(Cl)c3)cn3ccnc23)cc1` [CBK038042], 100%; as for `COc1ccc([C@@]23CC[C@H](NC(=O)c4[nH]cnc4C)C[C@@H]2N(C)CC3)cc1OC` [CBK038097], 118%.
As to `Cc1cccnc1C1(O)CCN(C(=O)Cc2ccccc2Cl)CC1` [CBK283682], the viability at 28.5 h, 10 µM is 98.7%.
Turning to `NC1CCN(C(=O)c2cn(C3CC3)c3cc(Cl)c(F)cc3c2=O)CC1` [CBK168626], the viability at 28.5 h, 10 µM was 93.3%.
Still for that read-out and setting: the same measure for `O=C(CSCc1ccccc1)Nc1ccc2c3c(cccc13)CC2` [CBK264916]: 107%.
The same measure, in the same setting: the same measure for `Cc1nc2ccccn2c1-c1csc(Nc2ccc(C(=O)O)cc2)n1` [CBK261634B]: 74.4%; for `Oc1cc2cccnc2nc1-c1ccc2c(c1)CCO2` [CBK073698]: 76%.
Same read-out and setting: the same measure for `O=C1CCCC2=C1C(c1ccccc1O)c1c([nH][nH]c1=O)N2` (centres unmarked) [CBK288442]: 90.2%; for `Cn1cc(C2CCCN2C(=O)c2cccc(C#N)c2)cn1` (centres unmarked) [CBK304849]: 98%; for `O=C(OCc1ccc2sccc2c1)N1CCOCC1` [CBK200163]: 101%.
Turning to `Cc1ccc(CCC(=O)C(C#N)c2nc3ccccc3s2)o1` (centres unmarked) [CBK268944], the viability at 28.5 h, 10 µM came to 112%.
Turning to `CN1CCCC1CCOc1ncccc1OCCO` (centres unmarked) [CBK039176], the viability at 28.5 h, 10 µM amounted to 118%.
For the molecule `CCCCNc1nnc(-c2cc(C)nn2C)s1` [CBK288019], the viability at 28.5 h, 10 µM stood at 91.5%.
On to `O=C(c1cccnc1N1CCCCC1)N1CCCCC1` [CBK025882], for which the viability at 28.5 h, 10 µM is 109%.
As for `COc1ccc(CN2CCN(Cc3ccccc3[N+](=O)[O-])CC2)c(OC)c1` [CBK263340], the viability at 28.5 h, 10 µM stood at 91%.
Regarding `COCC(=O)Nc1ccc2c(c1)NC(=O)C(C)(C)CO2` [CBK287658], the viability at 28.5 h, 10 µM came out at 89%.
With `Cc1nn(-c2ccc(C(=O)O)cc2)c2c1C(=O)CC(C)(C)C2` [CBK286734], the viability at 28.5 h, 10 µM stood at 86.4%.
Still for that read-out and setting: the same measure for `CC(=O)NCC1OCCc2ccccc21` (centres unmarked) [CBK026449]: 98.4%.
As to `CN1CCN(c2nccnc2-c2ccccc2)CC1` [CBK088825], the viability at 28.5 h, 10 µM stood at 88.7%.
For the molecule `O=C(O)c1cc(C(=O)O)cc(N2C(=O)c3ccc(-c4ccc5c(c4)C(=O)N(c4cc(C(=O)O)cc(C(=O)O)c4)C5=O)cc3C2=O)c1` [CBK261331], the viability at 28.5 h, 10 µM worked out at 96.6%.
As to `CCOc1ccc(-c2nc(C#N)c(NCCN3CCOCC3)o2)cc1` [CBK265867], the viability at 28.5 h, 10 µM stood at 112%.
Consider `O=C1CN(C(=O)NCc2cccc3ccccc23)CCN1` [CBK155852], for which the viability at 28.5 h, 10 µM was 102%.
Take `Clc1ccccc1-c1nccnc1OC(c1ccccc1)c1ccccc1` [CBK107002]: the viability at 28.5 h, 10 µM was determined as 92.9%.
Consider `CCc1c(C(=O)Nc2ccc(C(F)(F)F)cc2)cnc2ncnn12` [CBK291244], for which the viability at 28.5 h, 10 µM came to 90.4%.
Consider `O=C(Cn1ccc2ccc(F)cc21)Nc1cccc(-n2cnnc2)c1` [CBK282570], for which the viability at 28.5 h, 10 µM worked out at 111%.
With `Cc1ccc(-c2cn(S(=O)(=O)c3cccc4nsnc34)nc2N)cc1` [CBK268871], the viability at 28.5 h, 10 µM was 113%.
Turning to `N#Cc1cccc(C(=O)N2CCN(c3ncccn3)CC2)c1` [CBK144498], the viability at 28.5 h, 10 µM turned out to be 82.2%.
For the molecule `Nc1nc2n(c1C(=O)c1ccc(Cl)cc1)CCC2` [CBK288194], the viability at 28.5 h, 10 µM is 92.5%.
For the molecule `O=C(O)COc1ccc(NC(=O)C2CCCO2)cc1` (centres unmarked) [CBK270063], the viability at 28.5 h, 10 µM is 102%.
`Nc1ncc(-c2ccccc2)nc1NC1CCOCC1` [CBK063748]: the viability at 28.5 h, 10 µM stood at 97.3%.
Still for that read-out and setting: as for `COc1cc(NC(=O)C(C)Oc2cccc(Cl)c2)c(C(=O)O)cc1OC` (centres unmarked) [CBK268470], the figure is 92.4%.
On to `CC(=O)Nc1ccc(OC(=O)CSc2nc(C)cc(C)n2)cc1` [CBK266707], for which the viability at 28.5 h, 10 µM turned out to be 86.6%.
On the same count and under the same terms, the same measure for `O=C(CN1CCC(C(=O)c2ccc(F)cc2)CC1)c1ccsc1` [CBK149137]: 95.5%.
Regarding `O=C(O)CCNS(=O)(=O)c1ccc2ccccc2c1` [CBK286920], the viability at 28.5 h, 10 µM was 98.6%.
Consider `N#CCCn1cc(C(=O)Nc2ccc(C(=O)O)cc2)c(-c2cc3ccccc3o2)n1` [CBK267866], for which the viability at 28.5 h, 10 µM was 96.6%.
As for `CC1(C)Cc2cccc(OCC(=O)O)c2O1` [CBK270161], the viability at 28.5 h, 10 µM is 100%.
Consider `O=C(/C=C/c1ccsc1)Nc1ccc(F)cc1` [CBK057139], for which the viability at 28.5 h, 10 µM amounted to 93.9%.
For the molecule `O=C(NCc1ccccc1)C1(c2ccccc2)CCCC1` [CBK149540], the viability at 28.5 h, 10 µM amounted to 111%.
Regarding `CCOc1ccccc1NC(=O)CN(c1cc(C(F)(F)F)ccc1Cl)S(C)(=O)=O` [CBK264627], the viability at 28.5 h, 10 µM turned out to be 84.7%.
Consider `COc1cccc(Oc2nccnc2-c2cnn(C)c2)c1` [CBK107071], for which the viability at 28.5 h, 10 µM was found to be 98%.
With `CN1CC[C@]2(c3ccc4c(c3)nnn4C)CC[C@@H](NC(=O)Nc3cccc(C(F)(F)F)c3F)C[C@H]12` [CBK067410], the viability at 28.5 h, 10 µM came to 99.9%.
As to `O=C(Nc1nc2c(Br)cccc2s1)c1nc2ccccc2s1` [CBK287619], the viability at 28.5 h, 10 µM was 92.2%.
In the case of `Cc1cc(C(=O)NC(C)c2ccccn2)c2ccccc2n1` (centres unmarked) [CBK281826], the viability at 28.5 h, 10 µM worked out at 96.9%.
The same measure, in the same setting: the same measure for `COc1ccccc1NC(=O)C1=C(C)NC(SCC(=O)Nc2ccc(C(=O)O)cc2)=C(C#N)C1c1cccs1` (centres unmarked) [CBK296139]: 102%; for `COc1cc(C2=NS(=O)(=O)NC3=C2CCCC3)cc(OC)c1OC` [CBK010423]: 90.3%; for `CN(C)CC(c1ccccc1)c1nnc2n1-c1ccc(S(C)(=O)=O)cc1C(c1ccccc1)=NC2` (centres unmarked) [CBK005856G]: 102%.
For the molecule `Cc1ccc(S(=O)(=O)N2C[C@H]3C[C@H](NC(=O)C4CC4C)[C@H]3C2)cc1` (some centres unmarked) [CBK285318], the viability at 28.5 h, 10 µM came out at 108%.
Regarding `CN(Cc1ccsc1)C(=O)c1cccc(S(=O)(=O)NCC2CCCO2)c1` (centres unmarked) [CBK304232], the viability at 28.5 h, 10 µM is 83.7%.
The same measure, in the same setting: the same measure for `CC(=O)N/N=C(\C)c1ccc(-n2cnnn2)cc1` [CBK261252]: 95.9%.
`CN1CCC(N2CCN(C(=O)Nc3ccc(Cl)cc3)CC2)CC1` [CBK155899]: the viability at 28.5 h, 10 µM worked out at 109%.
As to `Cc1ncsc1C(=O)N1CCN(Cc2ccco2)C[C@@H]1C(C)C` [CBK285486], the viability at 28.5 h, 10 µM was determined as 101%.
For `O=c1n(-c2cccc(C(F)(F)F)c2)ccn1S(=O)(=O)c1ccc(N2CCOCC2)nc1` [CBK106590], the viability at 28.5 h, 10 µM stood at 104%.
As for `CC(=O)c1ccc(-c2nc(NC(=O)CC#N)cnc2-c2ccc(F)c(Cl)c2)s1` [CBK036841], the viability at 28.5 h, 10 µM came to 108%.
In the case of `CCn1c(CN2CCCC2c2noc(C)n2)nc2cc(F)ccc21` (centres unmarked) [CBK305250], the viability at 28.5 h, 10 µM is 55.9%.
On the same count and under the same terms, the same measure for `c1ccc2cc(-c3cn4ccnc4c(NC4CCOCC4)n3)ccc2c1` [CBK066290]: 96.1%; for `CCCN1CCN(CC(=O)NCc2ccco2)CC1` [CBK270300]: 84.2%; for `CCC(CN1CCCC1)n1cncc1-c1cn(C)nc1C` (centres unmarked) [CBK281459]: 102%.
On to `Cc1cc(O)nc(SCCCSc2ccccc2)n1` [CBK267415], for which the viability at 28.5 h, 10 µM turned out to be 114%.
Turning to `Cc1nc(NC(=O)c2c(F)cccc2F)sc1C` [CBK300495], the viability at 28.5 h, 10 µM turned out to be 76.1%.
On the same count and under the same terms, the same measure for `O=C(/C=C/c1ccc([N+](=O)[O-])cc1)Nc1ccc(O)cc1C(=O)O` [CBK263613]: 81%; for `CCc1ccc2c(c1)C(=O)CC1(CCN(C(=O)c3cc(OC)c(C)c(OC)c3)CC1)O2` [CBK168098]: 112%.
Turning to `O=C1/C(=C/NNc2nc3ccccc3s2)Sc2ccccc21` [CBK261627], the viability at 28.5 h, 10 µM came to 96.4%.
Take `COC(=O)c1cc(C(=O)Nc2ccc(OCCC(N)=O)cc2)c[nH]1` [CBK305486]: the viability at 28.5 h, 10 µM stood at 103%.
Take `COc1ccc(Cl)cc1NC(=O)CC1NC2CCCCC2NC1=O` (centres unmarked) [CBK267318]: the viability at 28.5 h, 10 µM is 80.4%.
For `O=C(NC1CCN(C(=O)CCn2ccc3ccncc32)CC1)C1CC1` [CBK284718], the viability at 28.5 h, 10 µM was found to be 78.3%.
Still for that read-out and setting: as for `CCn1c(COc2ccccc2Cl)nnc1SCC(=O)N1c2ccccc2Sc2ccccc21` [CBK265957], the figure is 114%; as for `O=C1NC2(CCN(C(=O)Cc3ccc(F)cc3)CC2)Oc2ccc(-c3ccccc3)cc21` [CBK115832], 93.5%; as for `Cc1csc(C(C)NC(=O)NC2CCCN(c3ccn(C)n3)C2=O)n1` (centres unmarked) [CBK304426], 107%.
`Cc1ccc(-c2csc3ncnc(Cl)c23)cc1` [CBK287765]: the viability at 28.5 h, 10 µM is 74.7%.
Turning to `CCn1cc([C@H]2CN(C)C[C@@H]2N(C)C)c2ccccc21` [CBK285468], the viability at 28.5 h, 10 µM was found to be 108%.
On to `O=C(CN1CCCC1=O)NC1(C(F)(F)F)NC(=O)N(c2ccc(F)cc2)C1=O` (centres unmarked) [CBK268057], for which the viability at 28.5 h, 10 µM stood at 98.1%.
On the same count and under the same terms, as for `Cc1ccc(S(=O)(=O)Nc2nccnc2-c2ccc(Cc3nnn[nH]3)cc2)cc1` [CBK073841], the figure is 96.9%; as for `Cc1ccc(-c2nnc(COc3ccc(-c4cnc5ccccc5n4)cc3)o2)cc1` [CBK269721], 90.9%.
As to `COc1ccc(C(C)C)cc1-c1cnc(N)c(NCCCN2CCOCC2)n1` [CBK063625], the viability at 28.5 h, 10 µM turned out to be 79.4%.
Regarding `COc1ccc2[nH]c(C(=O)O)c(CCNC(C)=O)c2c1` [CBK260943N], the viability at 28.5 h, 10 µM came out at 113%.

Still in this data set, the particulars now being: human, hela cells, % viability, bulk resorufin, single well.
In the case of `CCN1C(=O)/C(=C/Nc2ccc(S(N)(=O)=O)cc2)C(=O)NC1=S` [CBK265687], the viability at 28.5 h, 10 µM was 112%.
